Assays:
[1] = test system: adult subjects with relapsing MS; test: Treatment-emergent adverse events and premature treatment discontinuation, phase III study (Study 1); type: in vivo, human
Description: A total of 1438 MS patients have received PONVORY at doses of at least 2 mg daily. These patients were included in Study 1 (2-year active-controlled versus teriflunomide 14 mg) [see Clinical Studies (14)] and in a Phase 2 (6-month placebo-controlled) study in patients with MS and the uncontrolled extension studies.

[2] = test system: adult subjects with relapsing MS; test: Brain MRI lesions (CUAL, Gd+ T1, new/enlarging T2) from baseline to Week 108; type: in vivo, human
Description: CUAL are new Gd+T1 lesions plus new or enlarging T2 lesions (without double-counting of lesions).
MRI scans were performed at Visits 2 (Baseline), 10 (Week 60), and 14 (EOT) and at any unscheduled visit (U1, U2, etc.). If applicable, MRI scans also were performed at the corresponding visits in the PTOP (Visits 10A and 14A). Testing at all visits were performed up to 7 days prior to or after the visit date.
MRI variables included the number and volume of new and total Gd+ lesions on T1-weighted MRI scans, number of new and enlarging lesions and lesion volume on T2-weighted MRI, and global measures of loss of brain tissue.
T1-weighted imaging before and after i.v. administration of 0.1 mmol/kg body weight (=0.2 mL/kg) of Gd as well as PD-T2-weighted imaging was performed. Gd may cause nausea and vomiting and in very rare cases allergic reactions that could require immediate anti-anaphylactic therapy (such as steroids, epinephrine/adrenaline, etc.).
Patients (18-55 years) with RMS (expanded disability status scale scores: 0-5.5) were randomized (1:1) to receive ponesimod (PON) 20 mg or teriflunomide (TER) 14 mg for 108 weeks. MRI assessments were: volume of T2 lesions; mean number of new gadolinium-enhancing (Gd+) T1 lesions and new/enlarging T2 lesions; and absence of active MRI lesions at week 108. NEDA-3 status (absence of confirmed relapse, Gd+T1 lesions and new/enlarging T2 lesions on annual MRIs, and 12-week confirmed disability accumulation) was evaluated from baseline to week 108.

[3] = test system: adult subjects with relapsing MS; test: Blood pressure, Study 1; type: in vivo, human; settings: Study 1
Description: An increase in blood pressure with PONVORY was first detected after approximately 1 month of treatment initiation and persisted with continued treatment. Hypertensive events were reported as an adverse reaction in 10.1% of PONVORY-treated patients and in 9.0% of patients receiving teriflunomide 14 mg. One patient treated with PONVORY experienced a hypertensive crisis but had evidence of longstanding hypertensive heart disease. Blood pressure should be monitored during treatment with PONVORY and managed appropriately.

[4] = test system: adult subjects with relapsing MS; design: species or system human; settings: human, in vivo, 2 year
Excerpt: Based on the individual case review, most ALT/AST increases ≥3×ULN occurred as a single transient asymptomatic episode, resolving with continued treatment or after protocol mandated treatment discontinuation. All but one case of bilirubin increase ≥2×ULN occurred in subjects with pre-treatment bilirubin increases. One case of potential Hy's law occurred in a subject with pre-existing transaminase elevation (ALT>5×ULN), and the event fully resolved within 2 weeks after treatment discontinuation.
In Study 1, elevations of ALT to 5-fold the upper limit of normal (ULN) or greater occurred in 4.6% of patients treated with PONVORY compared to 2.5% of patients who received teriflunomide 14 mg. […] The median time to an elevation of 3-fold the ULN was 3 months. The majority (89%) of patients with ALT increases 3-fold or greater the ULN continued treatment with PONVORY with values returning to less than three times the ULN within approximately 2-4 weeks.

[5] = test system: adult subjects with relapsing MS; test: Pulmonary function (percent predicted FEV1), Study 1; type: in vivo, human
Description: In Study 1, the reduction from baseline in percent predicted FEV1 at 2 years was 8.3% in PONVORY-treated patients compared to 4.4% in patients receiving teriflunomide 14 mg. In Study 1, 7 patients discontinued PONVORY because of pulmonary adverse events. There is insufficient information to determine the reversibility of the decrease in FEV1 or FVC after treatment discontinuation. PONVORY should be used with caution in patients with severe respiratory disease (i.e., pulmonary fibrosis, asthma, and chronic obstructive pulmonary disease). Spirometric evaluation of respiratory function should be performed during therapy with PONVORY if clinically indicated.

`C/C(O)=C(\C#N)C(=O)Nc1ccc(C(F)(F)F)cc1` [Teriflunomide, reference compound] was tested, and the “Discontinuation reason: Death” value ([1]; Safety Set) was “(0.4) %”, the “Subjects who prematurely discontinued study treatment” value ([1]; Safety Set) was “(16.4) %” and the “Subjects with at least one Fatal AE” value ([1]; Safety Set) was “(0.4) %”. For the same compound, the “Day 1 AESI Electrocardiogram QT prolonged” value ([1]; human, in vivo) was “(0.2) %”, the “Day 1 AESI Presyncope” value ([1]; human, in vivo) was “(02) %” and the “AE leading to discontinuation, SOC Blood and lymphatic system disorders” value ([1]; human, in vivo, 2 year) was “(0.4) %”. For the same compound, the “AE leading to discontinuation, SOC Cardiac disorders” value ([1]; human, in vivo, 2 year) was “(0.4) %”, the “AE leading to discontinuation, SOC Gastrointestinal disorders” value ([1]; human, in vivo, 2 year) was “(0.7) %” and the “AE leading to discontinuation, SOC General disorders and administration site conditions” value ([1]; human, in vivo, 2 year) was “(0.4) %”. The “AE leading to discontinuation, SOC Hepatobiliary disorders” value ([1]; human, in vivo, 2 year) was “(0.4) %”, the “AE leading to discontinuation, SOC Investigations” value ([1]; human, in vivo, 2 year) was “(1.8) %” and the “AE leading to discontinuation, SOC Musculoskeletal and connective tissue disorders” value ([1]; human, in vivo, 2 year) was “(0.2) %”. The “AE leading to discontinuation, SOC Neoplasms benign, malignant and unspecified (incl cysts and polyps)” value ([1]; human, in vivo, 2 year) was “(0.2) %”, the “AE leading to discontinuation, SOC Nervous system disorders” value ([1]; human, in vivo, 2 year) was “(0.7) %” and the “AE leading to discontinuation, SOC Pregnancy, puerperium and perinatal conditions” value ([1]; human, in vivo, 2 year) was “(0.5) %”. The “AE leading to discontinuation, SOC Psychiatric disorders” value ([1]; human, in vivo, 2 year) was “(0.2) %”, the “AE leading to discontinuation, SOC Reproductive system and breast disorders” value ([1]; human, in vivo, 2 year) was “(0.2) %” and the “AE leading to discontinuation, SOC Skin and subcutaneous tissue disorders” value ([1]; human, in vivo, 2 year) was “(0.4) %”. For the same compound, the “AE leading to discontinuation, SOC Social circumstances” value ([1]; human, in vivo, 2 year) was “(0.2) %”, the “AE leading to discontinuation, SOC Surgical and medical procedures” value ([1]; human, in vivo, 2 year) was “(0.2) %” and the “AESI Effect on heart rate and rhythm (including hypotension)” value ([1]; human, in vivo, 2 year) was “(4.2) %”. The “AESI Macular edema” value ([1]; human, in vivo, 2 year) was “(0.2) %”, the “AESI Non-skin malignancy” value ([1]; human, in vivo, 2 year) was “(0.2) %” and the “AESI Skin malignancy” value ([1]; human, in vivo, 2 year) was “(0.2) %”. For the same compound, the “Discontinuation reason: Physician decision, Adverse event” value ([1]; human, in vivo, 2 year) was “(1.6) %”, the “Discontinuation reason: Pre-specified study treatment discontinuation criteria” value ([1]; human, in vivo, 2 year) was “(2.8) %” and the “Discontinuation reason: Subject decision, Tolerability related” value ([1]; human, in vivo, 2 year) was “(0.9) %”. For the same compound, the “Incidence of basal cell carcinoma” value ([1]; human, in vivo, 2 year) was 0.2%, the “Overall rate of infections” value ([1]; human, in vivo, 2 year) was 52.1% and the “Subjects discontinued due to AEs or tolerability related reasons” value ([1]; human, in vivo, 2 year) was 2.5%. The “Subjects with at least one Drug-Related AE” value ([1]; human, in vivo, 2 year) was “(42.0) %”, the “Subjects with at least one Severe AE” value ([1]; human, in vivo, 2 year) was “(4.6) %” and the “TEAE ALT increased” value ([1]; human, in vivo, 2 year) was 9.4%. For the same compound, the TEAE headache ([1]; human, in vivo, 2 year) was 12.7%, the TEAE nasopharyngitis ([1]; human, in vivo, 2 year) was 16.8% and the “TEAE upper respiratory tract infection” value ([1]; human, in vivo, 2 year) was 10.4%. For the same compound, the “Adverse reaction: C-reactive protein increased” value ([1]; human, in vivo, 2 years) was 1%, the “Adverse reaction: Cough” value ([1]; human, in vivo, 2 years) was 2% and the “Adverse reaction: Dizziness” value ([1]; human, in vivo, 2 years) was 3%. For the same compound, the “Adverse reaction: Dyspnea” value ([1]; human, in vivo, 2 years) was 1%, the “Adverse reaction: Hepatic transaminase elevation” value ([1]; human, in vivo, 2 years) was 12% and the “Adverse reaction: Hypercholesterolemia” value ([1]; human, in vivo, 2 years) was 1%. The “Adverse reaction: Hypertension” value ([1]; human, in vivo, 2 years) was 9%, the “Adverse reaction: Pain in extremity” value ([1]; human, in vivo, 2 years) was 3% and the “Adverse reaction: Pyrexia” value ([1]; human, in vivo, 2 years) was 1%. The “Adverse reaction: Somnolence” value ([1]; human, in vivo, 2 years) was 2%, the “Adverse reaction: Urinary tract infection” value ([1]; human, in vivo, 2 years) was 5% and the “Adverse reaction: Vertigo” value ([1]; human, in vivo, 2 years) was 1%. The “AESI Macular edema” value ([1]; in vivo) was “none”, the “Discontinuation reason: Lost to follow-up” value ([1]; in vivo) was “(0.5) %” and the “Discontinuation reason: Physician decision” value ([1]; in vivo) was “(4.1) %”. The “Discontinuation reason: Physician decision, Lack of efficacy/treatment failure” value ([1]; in vivo) was “(1.8) %”, the “Discontinuation reason: Physician decision, Other” value ([1]; in vivo) was “(0.7) %” and the “Discontinuation reason: Subject decision” value ([1]; in vivo) was “(8.7) %”. For the same compound, the “Discontinuation reason: Subject decision, Efficacy related” value ([1]; in vivo) was “(2.5) %”, the “Discontinuation reason: Subject decision, Not known” value ([1]; in vivo) was “(0.7) %” and the “Discontinuation reason: Subject decision, Other” value ([1]; in vivo) was “(4.6) %”. For the same compound, the “CUAL mean estimate (Lesions per year)” value ([2]; baseline to Week 108, negative binomial regression, Full Analysis Set) was 3.164 lesions per year, the “Mean number of new Gd+ T1 lesions per scan / per MRI” value ([2]; baseline to week 108) was 0.43 and the “Average increase in diastolic blood pressure” value [3] was 3.1 mm Hg. For the same compound, the “Average increase in systolic blood pressure” value [3] was 2.8 mm Hg, the “Discontinuation rate because of elevations in hepatic enzymes” value [4] was 1.9% and the “Patients with elevations of ALT to 5-fold the ULN or greater” value [4] was 2.5%. For the same compound, the “Subjects with ALT increase >3×ULN (label: 3-fold the ULN or greater)” value [4] was 8.3%, the “Subjects with ALT increase >8×ULN” value [4] was 2.1% and the “Reduction from baseline in percent predicted FEV1 at 2 years” value [5] was 4.4%.
